{"source": "PubChem BioAssay (NCI)", "test_in_all_cases": "NCI-60 cell line screen, 48 h", "key": {"K-562 leukemia": {"system": "K-562 leukemia"}, "SF-295 CNS": {"system": "SF-295 CNS"}, "A549 NSCLC": {"system": "A549 NSCLC"}, "ACHN renal": {"system": "ACHN renal"}, "SF-539 CNS": {"system": "SF-539 CNS"}, "NCI/ADR-RES ovarian": {"system": "NCI/ADR-RES ovarian"}, "EKVX NSCLC": {"system": "EKVX NSCLC"}, "HCT-15 colon": {"system": "HCT-15 colon"}, "NCI-H23 lung": {"system": "NCI-H23 lung"}, "UACC-257 melanoma": {"system": "UACC-257 melanoma"}, "HOP-92 NSCLC": {"system": "HOP-92 NSCLC"}, "HCC-2998 colon": {"system": "HCC-2998 colon"}, "MCF7 breast": {"system": "MCF7 breast"}, "SN12C renal": {"system": "SN12C renal"}, "MDA-MB-435": {"system": "MDA-MB-435"}, "TK-10 renal": {"system": "TK-10 renal"}, "PC-3 prostate": {"system": "PC-3 prostate"}, "MDA-MB-231 breast": {"system": "MDA-MB-231 breast"}, "OVCAR-3 ovarian": {"system": "OVCAR-3 ovarian"}, "MALME-3M melanoma": {"system": "MALME-3M melanoma"}, "NCI-H522 lung": {"system": "NCI-H522 lung"}, "KM12 colon": {"system": "KM12 colon"}, "SF-268 CNS": {"system": "SF-268 CNS"}, "HT29 colon": {"system": "HT29 colon"}, "T-47D breast": {"system": "T-47D breast"}, "OVCAR-5 ovarian": {"system": "OVCAR-5 ovarian"}}, "note": "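Compound exposure: 48 hours, 5 concentrations, 96-well plates. The concentration for 50% growth inhibition is given as GI50. TGI marks complete inhibition of growth.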"}
{"smiles": "CCN(CC)CCN1C(=O)c2c(c(C)c3c(oc4cc(O)ccc43)c2C)C1=O", "values": [{"measurement": "GI50", "setting": "K-562 leukemia", "result": 2.3, "unit": "µM"}, {"measurement": "TGI", "setting": "K-562 leukemia", "result": "> 100", "unit": "µM"}, {"measurement": "GI50", "setting": "SF-295 CNS", "result": 1.56, "unit": "µM"}, {"measurement": "TGI", "setting": "SF-295 CNS", "result": 2.98, "unit": "µM"}, {"measurement": "GI50", "setting": "A549 NSCLC", "result": 2.05, "unit": "µM"}, {"measurement": "TGI", "setting": "A549 NSCLC", "result": 4.68, "unit": "µM"}, {"measurement": "GI50", "setting": "ACHN renal", "result": 1.56, "unit": "µM"}, {"measurement": "TGI", "setting": "ACHN renal", "result": 2.89, "unit": "µM"}, {"measurement": "GI50", "setting": "SF-539 CNS", "result": 1.68, "unit": "µM"}, {"measurement": "TGI", "setting": "SF-539 CNS", "result": 3.05, "unit": "µM"}, {"measurement": "GI50", "setting": "NCI/ADR-RES ovarian", "result": 1.66, "unit": "µM"}, {"measurement": "TGI", "setting": "NCI/ADR-RES ovarian", "result": 3.26, "unit": "µM"}, {"measurement": "GI50", "setting": "EKVX NSCLC", "result": 1.69, "unit": "µM"}, {"measurement": "TGI", "setting": "EKVX NSCLC", "result": 3.3, "unit": "µM"}, {"measurement": "GI50", "setting": "HCT-15 colon", "result": 1.69, "unit": "µM"}, {"measurement": "TGI", "setting": "HCT-15 colon", "result": 3.32, "unit": "µM"}, {"measurement": "GI50", "setting": "NCI-H23 lung", "result": 1.7, "unit": "µM"}, {"measurement": "TGI", "setting": "NCI-H23 lung", "result": 3.2, "unit": "µM"}, {"measurement": "GI50", "setting": "UACC-257 melanoma", "result": 1.95, "unit": "µM"}, {"measurement": "TGI", "setting": "UACC-257 melanoma", "result": 4.15, "unit": "µM"}, {"measurement": "GI50", "setting": "HOP-92 NSCLC", "result": 1.54, "unit": "µM"}, {"measurement": "TGI", "setting": "HOP-92 NSCLC", "result": 3.14, "unit": "µM"}, {"measurement": "GI50", "setting": "HCC-2998 colon", "result": 1.62, "unit": "µM"}, {"measurement": "TGI", "setting": "HCC-2998 colon", "result": 3.03, "unit": "µM"}, {"measurement": "GI50", "setting": "MCF7 breast", "result": 1.65, "unit": "µM"}, {"measurement": "TGI", "setting": "MCF7 breast", "result": 3.32, "unit": "µM"}, {"measurement": "GI50", "setting": "SN12C renal", "result": 1.63, "unit": "µM"}, {"measurement": "TGI", "setting": "SN12C renal", "result": 3.11, "unit": "µM"}, {"measurement": "GI50", "setting": "MDA-MB-435", "result": 1.57, "unit": "µM"}, {"measurement": "TGI", "setting": "MDA-MB-435", "result": 3.08, "unit": "µM"}, {"measurement": "GI50", "setting": "TK-10 renal", "result": 1.93, "unit": "µM"}, {"measurement": "TGI", "setting": "TK-10 renal", "result": 3.62, "unit": "µM"}, {"measurement": "GI50", "setting": "PC-3 prostate", "result": 1.5, "unit": "µM"}, {"measurement": "TGI", "setting": "PC-3 prostate", "result": 3.22, "unit": "µM"}, {"measurement": "GI50", "setting": "MDA-MB-231 breast", "result": 1.74, "unit": "µM"}, {"measurement": "TGI", "setting": "MDA-MB-231 breast", "result": 3.36, "unit": "µM"}, {"measurement": "GI50", "setting": "OVCAR-3 ovarian", "result": 1.78, "unit": "µM"}, {"measurement": "TGI", "setting": "OVCAR-3 ovarian", "result": 3.34, "unit": "µM"}, {"measurement": "GI50", "setting": "MALME-3M melanoma", "result": 1.56, "unit": "µM"}, {"measurement": "TGI", "setting": "MALME-3M melanoma", "result": 2.97, "unit": "µM"}, {"measurement": "GI50", "setting": "NCI-H522 lung", "result": 2.11, "unit": "µM"}, {"measurement": "TGI", "setting": "NCI-H522 lung", "result": 4.71, "unit": "µM"}, {"measurement": "GI50", "setting": "KM12 colon", "result": 1.82, "unit": "µM"}, {"measurement": "TGI", "setting": "KM12 colon", "result": 3.74, "unit": "µM"}, {"measurement": "GI50", "setting": "SF-268 CNS", "result": 1.74, "unit": "µM"}, {"measurement": "TGI", "setting": "SF-268 CNS", "result": 3.78, "unit": "µM"}, {"measurement": "GI50", "setting": "HT29 colon", "result": 2.14, "unit": "µM"}, {"measurement": "TGI", "setting": "HT29 colon", "result": 5.41, "unit": "µM"}, {"measurement": "GI50", "setting": "T-47D breast", "result": 2.28, "unit": "µM"}, {"measurement": "TGI", "setting": "T-47D breast", "result": 6.44, "unit": "µM"}, {"measurement": "GI50", "setting": "OVCAR-5 ovarian", "result": 1.66, "unit": "µM"}, {"measurement": "TGI", "setting": "OVCAR-5 ovarian", "result": 3.04, "unit": "µM"}]}
